The record followed here is patent US5635509A, “Piperidine derivatives useful as neurokinin antagonists” (Zeneca Limited, priority 1994, dated 1997).

As usually defined, the Ki is the dissociation constant of the complex between target and ligand, obtained from inhibition or displacement. Broadly, the Kb is the equilibrium dissociation constant of an antagonist, usually derived from a functional assay. A higher Kb goes with a less potent antagonist.

In one experiment the target is T1, human NK2 receptor (Homo sapiens, UniProt P21452).
T1 construct: expressed in transfected cells; host or cells: Mouse Erythroleukemia (MEL) cells
T1 sequence (P21452 1-398): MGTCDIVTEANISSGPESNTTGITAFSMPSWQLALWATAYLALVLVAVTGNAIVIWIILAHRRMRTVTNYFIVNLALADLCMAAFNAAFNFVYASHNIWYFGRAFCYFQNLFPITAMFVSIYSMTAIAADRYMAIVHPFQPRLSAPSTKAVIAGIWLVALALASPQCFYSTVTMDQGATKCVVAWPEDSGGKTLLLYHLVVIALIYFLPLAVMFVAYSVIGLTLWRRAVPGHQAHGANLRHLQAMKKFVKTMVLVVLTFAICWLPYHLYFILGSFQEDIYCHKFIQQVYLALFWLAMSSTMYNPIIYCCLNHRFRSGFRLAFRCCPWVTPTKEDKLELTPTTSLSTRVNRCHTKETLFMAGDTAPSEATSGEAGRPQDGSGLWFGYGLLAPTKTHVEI
The experiment in a line: Neurokinin A (NKA) Receptor-binding Assay (Test A). Particulars: typically found. The source says: Neurokinin A (NKA) Receptor-binding Assay (Test A)

A further experiment addresses T2, guinea pig trachea (Cavia porcellus, UniProt Q64077).
T2 construct: The trachea are removed, trimmed of excess tissue and divided into two segments; from tissue; host or cells: guinea pig trachea rings
T2 sequence (Q64077 1-402): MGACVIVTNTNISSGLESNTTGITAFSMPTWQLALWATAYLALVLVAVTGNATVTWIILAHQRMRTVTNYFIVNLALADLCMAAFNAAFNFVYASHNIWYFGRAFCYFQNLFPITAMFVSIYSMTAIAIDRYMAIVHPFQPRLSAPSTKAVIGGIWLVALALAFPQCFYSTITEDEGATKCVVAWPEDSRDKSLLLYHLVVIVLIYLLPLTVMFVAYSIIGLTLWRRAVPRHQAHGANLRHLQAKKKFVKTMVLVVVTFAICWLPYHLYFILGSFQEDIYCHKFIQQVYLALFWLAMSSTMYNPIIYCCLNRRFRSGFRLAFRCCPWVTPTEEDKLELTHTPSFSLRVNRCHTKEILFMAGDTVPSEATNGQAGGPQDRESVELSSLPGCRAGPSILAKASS
The experiment in a line: Guinea Pig Assay (Test B), functional assay in guinea pig trachea, antagonism of NKA or [β-ala8]-NKA(4-10) contraction. Particulars: -log molar KB, agonist NKA or [β-ala8]-NKA(4-10), 30 min incubation. The class given is cell-based. How it is done:
Guinea Pig Assay (Test B)
The chosen agonist is refered to as AG throughout the description.
Male guinea pigs are killed by a sharp blow to the back of the head. The trachea are removed, trimmed of excess tissue and divided into two segments. Each segment is suspended as a ring between stainless steel stirrups in water-jacketed (37.5° C.) tissue baths containing a physiological salt solution of the following composition (mM): NaCl, 119; KCl 4.6; CaCl2, 1.8; MgCl2, 0.5; NaH2 PO4, 1; NaHCO3, 25; glucose, 11; thiorphan, 0.001; and indomethacin, 0.005; gassed continuously with 95% O2 -%5 CO2. […] Contractile responses are measured on a Grass polygraph via Grass FT-03 force transducers.
Tissues are challenged repetitively with a single concentration of AG (10 nM) with intervening 30 min periods with washing to allow the tension to return to baseline levels. […] Percent inhibition is determined when a Compound produces a statistically significant (p<0.05) reduction of the contraction and is calculated using the second contractile response as 100%.
Potencies of selected Compounds are evaluated by calculating apparent dissociation constants (KB) for each concentration tested using the standard equation: […]
where dose ratio=antilog[(AG -log molar EC50 without Compound)--(AG -log molar EC50 with Compound)]. The KB values may be converted to the negative logarithms and expressed as -log molar KB (i.e. pKB). […]

Where a name gives a salt, the structure may show the parent alone.

Consider `O[C@@H](c1nccn1-c1ccccc1)[C@H](CCN1CCC(O)(c2ccccc2)CC1)c1ccc(Cl)c(Cl)c1` (racemic) [Example 2, 2-[(1RS,2RS)-2-(3,4-Dichlorophenyl)-1-hydroxy-4-(4-hydroxy-4-phenylpiperidino)butyl]-1-phenylimidazole Hydrochloride], for which the affinity on human NK2 receptor corresponds to a Ki of 34 nM. In other words, the double-digit nanomolar range.
`O=C(c1c[nH]nc1-c1ccccc1)C(CCN1CCC(O)(c2ccccc2)CC1)c1ccc(Cl)c(Cl)c1` (centres unmarked) [Example 3, 4-[2-(3,4-Dichlorophenyl)-4-(4-hydroxy-4-phenylpiperidino)butyroyl]-3-phenyl-1H-pyrazole] had a Kb on guinea pig trachea of 251 nM.
